# Target: T1, human mPGES-1 (Homo sapiens, UniProt O14684)
# T1 construct: made in house; host or cells: FreeStyle CHO-S cells (Chinese hamster ovary), transient transfection with pcDNA3.1(+)/human mPGES-1; microsome fraction used
# T1 sequence (O14684 1-152): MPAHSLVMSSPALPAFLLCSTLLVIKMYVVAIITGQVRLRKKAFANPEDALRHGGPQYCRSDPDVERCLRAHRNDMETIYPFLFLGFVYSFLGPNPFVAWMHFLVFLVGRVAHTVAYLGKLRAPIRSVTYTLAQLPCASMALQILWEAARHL
# Experiment: Evaluation of human mPGES-1 enzyme inhibitory activity (PGE2 measured by HTRF, microsome fraction of CHO-S cells expressing human mPGES-1)
# Assay type: biochemical
# Settings: IC50 value; microsome fraction of CHO-S cells expressing human mPGES-1, PGE2 by HTRF
# Outline: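 Enzyme source: microsomes from CHO-S cells transfected with human mPGES-1 and cultured 48 hr, diluted to 5 μg/mL protein in reduced GSH (12.5 mmol/L KPB solution). Test articles were in 0.1 mol/L potassium phosphate pH 7.4, final DMSO 2% (v/v). PGE2 formed was quantified by HTRF.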
row,SMILES,IC50
1,CCC(CC)C(=O)N(C)Cc1ccc(Cl)c(-c2nc(O)nc(-c3ccccc3)n2)c1 [Example 1-233],0.848 µM
2,COC(C)(C)C(=O)N(C)Cc1ccc(Cl)c(-c2nc(O)nc(-c3ccccc3)n2)c1 [Example 1-234],1 µM
3,CCN(Cc1ccc(Cl)c(-c2nc(O)nc(-c3ccc(OCC(C)(C)C)cc3)n2)c1)C(=O)C(C)(C)C(F)(F)F [Example 1-235],0.07 µM
4,CC1(C)CN(Cc2ccc(Cl)c(-c3nc(O)nc(-c4ccccc4)n3)c2)C1=O [Example 1-236],0.263 µM
5,CN(Cc1ccc(Cl)c(-c2nc(O)nc(-c3ccccc3)n2)c1)C(=O)C(C)(C)c1ccccc1 [Example 1-237],1.3 µM
6,CN(Cc1ccc(Cl)c(-c2nc(O)nc(-c3ccccc3)n2)c1)C(=O)C1(C(F)(F)F)CCCC1 [Example 1-238],0.0074 µM
7,COCC(C)(C)C(=O)N(C)Cc1ccc(Cl)c(-c2nc(O)nc(-c3ccccc3)n2)c1 [Example 1-239],0.428 µM
8,CC1(C)CCN(Cc2ccc(Cl)c(-c3nc(O)nc(-c4ccccc4)n3)c2)C1=O [Example 1-240],0.428 µM
9,CC1(C)CCCN(Cc2ccc(Cl)c(-c3nc(O)nc(-c4ccccc4)n3)c2)C1=O [Example 1-241],0.278 µM
10,CO[C@](C)(C(=O)N(C)Cc1ccc(Cl)c(-c2nc(O)nc(-c3ccccc3)n2)c1)C(F)(F)F [Example 1-242],0.082 µM
11,CO[C@@](C)(C(=O)N(C)Cc1ccc(Cl)c(-c2nc(O)nc(-c3ccccc3)n2)c1)C(F)(F)F [Example 1-243],0.12 µM
12,CN(Cc1ccc(Cl)c(-c2nc(O)nc(-c3ccccc3)n2)c1)C(=O)C1(C(F)(F)F)CCCCC1 [Example 1-244],0.021 µM
13,CCCC(C)(C)C(=O)N(C)Cc1ccc(Cl)c(-c2nc(O)nc(-c3ccccc3)n2)c1 [Example 1-245],0.108 µM
14,CN(Cc1ccc(Cl)c(-c2nc(O)nc(-c3ccccc3)n2)c1)C(=O)C1Cc2ccccc2C1 [Example 1-246],0.307 µM
15,O=C(NCc1ccc(Cl)c(-c2nc(O)nc(-c3ccccc3)n2)c1)C1(CO)CCCCC1 [Example 1-247],0.011 µM
16,O=C1N(Cc2ccc(Cl)c(-c3nc(O)nc(-c4ccccc4)n3)c2)CC12CCCCC2 [Example 1-248],0.016 µM
17,CN(Cc1ccc(Cl)c(-c2nc(O)nc(-c3ccccc3)n2)c1)C(=O)C(C)(C)Cc1ccccc1 [Example 1-249],0.226 µM
18,CCC(CC)(CO)C(=O)NCc1ccc(Cl)c(-c2nc(O)nc(-c3ccccc3)n2)c1 [Example 1-250],0.012 µM
19,CCC1(CC)CN(Cc2ccc(Cl)c(-c3nc(O)nc(-c4ccccc4)n3)c2)C1=O [Example 1-251],0.018 µM
20,CCO[C@](C)(C(=O)N(C)Cc1ccc(Cl)c(-c2nc(O)nc(-c3ccccc3)n2)c1)C(F)(F)F [Example 1-252],0.511 µM
21,CCO[C@@](C)(C(=O)N(C)Cc1ccc(Cl)c(-c2nc(O)nc(-c3ccccc3)n2)c1)C(F)(F)F [Example 1-253],0.791 µM
22,O=C(NCc1ccc(Cl)c(-c2nc(O)nc(-c3ccccc3)n2)c1)C1(CO)CCCC1 [Example 1-254],0.03 µM
23,O=C1N(Cc2ccc(Cl)c(-c3nc(O)nc(-c4ccccc4)n3)c2)CC12CCCC2 [Example 1-255],0.045 µM
24,"CC1(C)C(=O)N(Cc2ccc(Cl)c(-c3nc(O)nc(-c4ccccc4)n3)c2)c2ccccc21 [Example 1-258, 1-[4-chloro-3-(4-hydroxy-6-phenyl-1,3,5-triazin-2-yl)-benzyl]-3,3-dimethyl-1,3-dihydroindol-2-one]",1.9 µM

row,SMILES,IC50
1,CCCC(CO)(CCC)C(=O)NCc1ccc(Cl)c(-c2nc(O)nc(-c3ccccc3)n2)c1 [Example 1-259],0.176 µM
2,CCCC1(CCC)CN(Cc2ccc(Cl)c(-c3nc(O)nc(-c4ccccc4)n3)c2)C1=O [Example 1-260],0.147 µM
3,CC1(C(=O)NCc2ccc(Cl)c(-c3nc(O)nc(-c4ccccc4)n3)c2)Cc2ccccc2C1 [Example 1-262],0.007 µM
4,"CCN(Cc1ccc(Cl)c(-c2nc(O)nc(-c3ccccc3)n2)c1)C(=O)C(C)(C)C(F)(F)F [Example 1-263, N-[4-chloro-3-(4-hydroxy-6-phenyl-1,3,5-triazin-2-yl)benzyl]-N-ethyl-3,3,3-trifluoro-2,2-dimethylpropionamide]",0.702 µM
5,CN(Cc1ccc(Cl)c(-c2nc(O)nc(-c3ccccc3)n2)c1)C(=O)C1(C)Cc2ccccc2C1 [Example 1-264],0.163 µM
6,CC(C)(C)OC(=O)N1CCC2(CC1)CCN(Cc1ccc(Cl)c(-c3nc(O)nc(-c4ccccc4)n3)c1)C2=O [Example 1-265],0.056 µM
7,Cc1cccc(C)c1-c1nc(O)nc(-c2ccc(C(F)(F)F)cc2)n1 [Example 2-1],0.283 µM
8,Cc1cccc(C)c1-c1nc(O)nc(-c2ccccc2)n1 [Example 2-2],21.3 µM
9,Cc1cc(C(F)(F)F)ccc1-c1nc(O)nc(-c2c(C)cccc2C)n1 [Example 2-3],14.7 µM
10,COc1cccc(Cl)c1-c1nc(O)nc(-c2ccc(C(F)(F)F)cc2)n1 [Example 2-4],0.066 µM
11,Cc1cccc(C)c1-c1nc(O)nc(-c2ccc(OCc3ccccc3)cc2)n1 [Example 2-5],0.101 µM
12,Cc1cccc(C)c1-c1nc(O)nc(-c2ccc(C(C)(C)C)cc2)n1 [Example 2-7],3.5 µM
13,Cc1cccc(C)c1-c1nc(O)nc(-c2ccc(C(C)C)cc2)n1 [Example 2-8],1.9 µM
14,Cc1cccc(C)c1-c1nc(O)nc(-c2ccc(C(F)(F)F)cc2F)n1 [Example 2-9],6.4 µM
15,Oc1nc(-c2ccc(C(F)(F)F)cc2)nc(-c2c(F)cccc2Cl)n1 [Example 2-10],0.073 µM
16,Cc1cccc(C)c1-c1nc(O)nc(-c2ccc(C#Cc3ccccc3)cc2)n1 [Example 2-11],0.006 µM
17,Cc1cccc(C)c1-c1nc(O)nc(-c2ccc(CCc3ccccc3)cc2)n1 [Example 2-12],0.141 µM
18,Cc1cccc(-c2nc(O)nc(-c3c(C)cccc3C)n2)c1 [Example 2-13],23.1 µM
19,COc1cccc(-c2nc(O)nc(-c3c(C)cccc3C)n2)c1 [Example 2-14],14.3 µM
20,Cc1cccc(C)c1-c1nc(O)nc(-c2cccc(F)c2)n1 [Example 2-15],16.4 µM
21,Oc1nc(-c2ccc(C(F)(F)F)cc2)nc(-c2c(O)cccc2Cl)n1 [Example 2-16],0.412 µM
22,CCOc1cccc(Cl)c1-c1nc(O)nc(-c2ccc(C(F)(F)F)cc2)n1 [Example 2-17],0.039 µM
23,Cc1cccc(C)c1-c1nc(O)nc(-c2ccc(C#CC3CCCCC3)cc2)n1 [Example 2-18],0.008 µM
24,Cc1cccc(Cl)c1-c1nc(O)nc(-c2ccc(C(F)(F)F)cc2)n1 [Example 2-19],0.211 µM

row,SMILES,IC50
1,CCCOc1cccc(Cl)c1-c1nc(O)nc(-c2ccc(C(F)(F)F)cc2)n1 [Example 2-20],0.052 µM
2,CC(C)Oc1cccc(Cl)c1-c1nc(O)nc(-c2ccc(C(F)(F)F)cc2)n1 [Example 2-21],0.341 µM
3,OCCOc1cccc(Cl)c1-c1nc(O)nc(-c2ccc(C(F)(F)F)cc2)n1 [Example 2-22],0.219 µM
4,OCCCOc1cccc(Cl)c1-c1nc(O)nc(-c2ccc(C(F)(F)F)cc2)n1 [Example 2-23],0.155 µM
5,Cc1cccc(C)c1-c1nc(O)nc(-c2ccc(F)cc2)n1 [Example 2-24],2.4 µM
6,Cc1cccc(C)c1-c1nc(O)nc(-c2ccc(Cl)cc2)n1 [Example 2-25],0.249 µM
7,Cc1ccc(-c2nc(O)nc(-c3c(C)cccc3C)n2)cc1 [Example 2-26],2.7 µM
8,COc1ccc(-c2nc(O)nc(-c3c(C)cccc3C)n2)cc1 [Example 2-27],7.7 µM
9,Cc1cccc(C)c1-c1nc(O)nc(-c2cccc(C(F)(F)F)c2)n1 [Example 2-28],3.7 µM
10,Cc1cccc(C)c1-c1nc(O)nc(-c2cccc(OCc3ccccc3)c2)n1 [Example 2-29],0.503 µM
11,CCCCOc1cccc(Cl)c1-c1nc(O)nc(-c2ccc(C(F)(F)F)cc2)n1 [Example 2-31],0.031 µM
12,Oc1nc(-c2ccc(C(F)(F)F)cc2)nc(-c2c(Cl)cccc2OCc2ccccc2)n1 [Example 2-32],0.014 µM
13,CC(C)COc1cccc(Cl)c1-c1nc(O)nc(-c2ccc(C(F)(F)F)cc2)n1 [Example 2-33],0.102 µM
14,COCCOc1cccc(Cl)c1-c1nc(O)nc(-c2ccc(C(F)(F)F)cc2)n1 [Example 2-34],0.163 µM
15,COc1cccc(Cl)c1-c1nc(O)nc(-c2ccc(OCc3ccccc3)cc2)n1 [Example 2-35],0.017 µM
16,Oc1nc(-c2ccc(C(F)(F)F)cc2)nc(-c2c(Cl)cccc2OCC(F)(F)F)n1 [Example 2-36],0.053 µM
17,Cc1cccc(C)c1-c1nc(O)nc(-c2ccc(OCC3CCCCC3)cc2)n1 [Example 2-37],0.041 µM
18,Cc1cccc(C)c1-c1nc(O)nc(-c2ccc(OC(C)C)cc2)n1 [Example 2-38],1 µM
19,Cc1cccc(C)c1-c1nc(O)nc(-c2ccc(CC(C)C)cc2)n1 [Example 2-39],0.45 µM
20,CCOc1ccc(-c2nc(O)nc(-c3c(C)cccc3C)n2)cc1 [Example 2-40],1.3 µM
21,CCCOc1ccc(-c2nc(O)nc(-c3c(C)cccc3C)n2)cc1 [Example 2-41],0.429 µM
22,Cc1cccc(C)c1-c1nc(O)nc(-c2ccc(OCC(C)C)cc2)n1 [Example 2-42],0.239 µM
23,Cc1cccc(C)c1-c1nc(O)nc(-c2ccc(O[C@@H](C)c3ccccc3)cc2)n1 [Example 2-43],0.57 µM

# Same assay, conditions: at 30 μM test article
row,SMILES,inhibition at 30 µM
1,CCC(=O)N(CC)Cc1ccc(Cl)c(-c2nc(O)nc(-c3ccccc3)n2)c1 [Example 1-261],44%
2,Cc1cccc(C)c1-c1nc(O)nc(-c2ccc(O)cc2)n1 [Example 2-6],28%
3,Cc1cccc(C)c1-c1nc(O)nc(-c2cccc(O)c2)n1 [Example 2-30],43%
